Source: US20070093457A1, “Compositions for treatment of cancer and inflammation with curcumin and at least one nsaid” (priority 2004, published 2007)

Assays:
RASFs = assay: RASF cell viability assay (XTT); type: cell-based; conditions: Homo sapiens, 72 hours, read-out: IC50 cell growth
Description: RASFs that had been prepared from small pieces (2 mm in diameter) of human synovial tissue were grown after trypsinization in monolayers in tissue culture flasks, as known to a person skilled in the art. The synovial tissue specimens were obtained during total knee replacement surgery in patients diagnosed as having rheumatoid arthritis according to the revised criteria of the American College of Rheumatology. Synovial tissue was digested for 2 hours with 0.2% (weight/volume) bacterial collagenase and then suspended in Dulbecco's modified Eagle's medium (DMEM, Biological Industries, Israel) with 10% (volume/volume) fetal calf serum (FCS), 100 units/ml penicillin, and […] streptomycin. The cells were incubated at 37° C. in 5% CO2 for 3-5 days, after which the non-adherent cells were removed. Fibroblast-like adherent cells from the first or second passage were used as RASFs.
RASFs (1.5×10^4/well) were incubated at 37° C. in 96-well plastic plates with test drugs in DMEM containing 10% FCS in an atmosphere of 5% CO2 (fmal dimethyl sulfoxide concentration 0.1%). After 72 hours, cell viability was assessed by the ability of metabolically active cells to reduce tetrazolium salt (XTT) to colored formazan compounds. The absorbance of the samples was measured with a specific enzyme-linked immunoassay (ELISA) reader (wavelength 450 nm; reference wavelength 630 nm). […]

RASF cells = assay: RASF apoptosis, flow-cytometric analysis
COX-2 mRNA = assay: Reverse transcriptase PCR of COX-2 mRNA; type: cell-based, human; conditions: HT-29; selected concentrations
Description: HT-29 cells were treated with the selected drugs as indicated. The mRNA was extracted, and equal amounts were transcribed to cDNA from a kit (Promega, CITY, USA). The cDNA was taken from samples at various times and used as the DNA templates for PCR. Primers used for COX-2 were: […]
GAPDH was used to ensure equal loading. […] were used as the template and […] of each primer was used for each cDNA sample. The samples went through 30 rounds of PCR. They were separated on 1% agarose gel and visualized by ethidium bromide. 7. Measurement of PGE2 Concentration

COX-2 = conditions: HT-29; curcumin 10-15 μM
Description: PGE2 concentration in the medium, as released by the cells, was determined by a commercially available PGE2-specific enzyme-linked immunoassay (R&D Biosystems, Abingdon, UK) according to the manufacturer's protocol.

| Structure (SMILES) | IC50 (RASFs) [µM] | cell apoptosis (cells with sub-diploid DNA content) (RASF cells; celecoxib 20-40 μM) | COX-2 mRNA expression (COX-2 mRNA) | effect on PGE2 synthesis (COX-2) | cell apoptosis (cells with sub-diploid DNA content) (RASF cells; curcumin 20 μM) [%] |
| --- | --- | --- | --- | --- | --- |
| Cc1ccc(-c2cc(C(F)(F)F)nn2-c2ccc(S(N)(=O)=O)cc2)cc1 [celecoxib, reference compound] | 40 | 4.8-19.2% |  |  |  |
| COc1cc(/C=C/C(=O)CC(=O)/C=C/c2ccc(O)c(OC)c2)ccc1O [curcumin] | 35 |  | no effect | dose-dependent effect | 4.7 |
